{"source": "paper PMC8277557", "about": "(Bioorganic & Medicinal Chemistry Letters, 2021)", "origin": "cited, not measured here", "key": {"[1]": {"conditions": "in vivo"}, "CoV-2 3CLpro": {"system": "CoV-2 3CLpro", "conditions": "for IC50: read-out: Literature IC50, CoV-2 3CLpro"}}, "note": "Like-named read-outs stand apart in the source and are kept apart here.", "data": [{"compound": "C[C@@H](OC(C)(C)C)[C@H](NC(=O)OCc1ccccc1)C(=O)N[C@@H](CC1CCCCC1)C(=O)N[C@H](C=O)C[C@@H]1CCNC1=O", "note": "[TG-0205221]", "values": [{"measurement": "pharmacokinetic profile in rodents", "setting": "[1]", "value": "favourable pharmacokinetic profile"}]}, {"compound": "CC(C)C[C@H](NC(=O)OCc1ccccc1)C(=O)N[C@@H](C[C@@H]1CCNC1=O)C(=O)c1nc2ccccc2s1", "note": "[Compound 25c]", "values": [{"measurement": "IC50", "setting": "CoV-1 3CLpro; read-out: Literature IC50", "value": 21, "unit": "µM"}]}, {"compound": "O=C[C@H](C[C@@H]1CCNC1=O)NC(=O)[C@H](Cc1cccc(F)c1)NC(=O)c1cc2ccccc2[nH]1", "note": "[Compound 11b]", "values": [{"measurement": "IC50", "setting": "CoV-2 3CLpro; ref [20]", "value": "0.04 ± 0.002", "unit": "µM"}]}, {"compound": "Boceprevir", "values": [{"measurement": "IC50", "setting": "CoV-2 3CLpro; ref [16]", "value": "4.13 ± 0.61", "unit": "µM"}, {"measurement": "IC50", "setting": "CoV-2 3CLpro; ref [29]", "value": "5.4 ± 1.53", "unit": "µM"}]}, {"compound": "CCCC[C@@H](C=O)NC(=O)[C@H](CC(C)C)NC(=O)OCc1ccccc1", "note": "[Calpeptin]", "values": [{"measurement": "IC50", "setting": "CoV-2 3CLpro; ref [16]", "value": "10.7 ± 0.28", "unit": "µM"}, {"measurement": "IC50", "setting": "CoV-2 3CLpro; ref [31]", "value": "4.81 ± 0.18", "unit": "µM"}]}, {"compound": "CCOC(=O)/C=C/[C@H](C[C@@H]1CCNC1=O)NC(=O)[C@H](CC(C)C)NC(=O)[C@@H](NC(=O)OCc1ccccc1)C(C)C", "note": "[Compound 3]", "values": [{"measurement": "Ki", "setting": "CoV-1 3CLpro; read-out: Literature Ki, CoV-1 3CLpro, ref [19]", "value": 0.66, "unit": "µM"}]}, {"compound": "CCOC(=O)/C=C/[C@H](C[C@@H]1CCNC1=O)NC(=O)[C@@H](CC(=O)[C@@H](NC(=O)c1cc(C)on1)C(C)C)Cc1ccc(F)cc1", "note": "[Rupintrivir]", "values": [{"measurement": "activity against SARS-CoV-2 3CLpro", "setting": "CoV-2 3CLpro; ref [16], [19]", "value": "inactive"}, {"measurement": "activity against SARS-CoV-1 3CLpro", "setting": "CoV-1 3CLpro", "value": "inactive"}]}]}
